Source: patent US11964973B2 (priority 2019, dated 2024)
Like-named read-outs stand apart in the source and are kept apart here.

Tests used:
[1] = target: full length human DGKζ (Homo sapiens (Human), UniProt Q13574); experiment: In vitro DGK inhibition assay, Method B (DGKζ LIPGLO, extruded liposomes); format: biochemical
[2] = target: Human DGKα(9-727) (Homo sapiens (Human), UniProt P23743); experiment: biochemical; settings: liposome (LIPGLO) assay; Table A; read-out: DGKα LIPGLO IC50
[3] = system: human venous whole blood, CD8 positive population (pERK); experiment: DGK human whole blood pERK assay; format: cell-based; settings: for EC50: top concentration 20 μM
Outline: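 Heparinized whole blood from healthy donors preincubated with compound 1 hour at 37° C. Stimulation used anti-CD3 at 1 μg/mL final plus cross-linking goat anti-mouse IgG for 15 minutes. Flow cytometry scored percentage pERK-positive cells among CD8-positive cells.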

[4] = system: naïve human CD8 T cells; experiment: CellTiter-Glo CD8 T cell proliferation assay; format: cell-based; settings: Homo sapiens, read-out: CD8 GLO Normalized EC50
Description: Assay 4: CellTiter-Glo CD8 T Cell Proliferation Assay
Frozen naïve human CD8 T cells were thawed in RPMI+10% FBS, incubated for 2 h in 37° C., and counted. The 384-well tissue culture plate was coated overnight at 4° C. with 20 μl anti-human CD3 at 0.1 μg/mL in plain RPMI, which was removed off the plate before 20 k/40 μL CD8 T cells with 0.5 μg/ml soluble anti-human CD28 were added to each well. The compounds were echoed to the cell plate immediately after the cells were plated. After 72 h incubation at 37° C. incubator, 10 μL CellTiter-glo reagent (Promega catalog number G7570) was added to each well. The plate was vigorously shaken for 5 mins, incubated at room temperature for another 15 mins and read on Envision for CD8 T cell proliferation. In analysis, 0.1 μg/mL anti-CD3 and 0.5 μg/mL anti-CD28 stimulated CD8 T cell signal was background.

[5] = target: human DGKζ (Homo sapiens (Human), UniProt Q13574); experiment: biochemical; format: biochemical; settings: liposome (LIPGLO) assay; read-out: DGKζ LIPGLO IC50
Sequence of human DGKζ (Q13574 whole entry, looked up): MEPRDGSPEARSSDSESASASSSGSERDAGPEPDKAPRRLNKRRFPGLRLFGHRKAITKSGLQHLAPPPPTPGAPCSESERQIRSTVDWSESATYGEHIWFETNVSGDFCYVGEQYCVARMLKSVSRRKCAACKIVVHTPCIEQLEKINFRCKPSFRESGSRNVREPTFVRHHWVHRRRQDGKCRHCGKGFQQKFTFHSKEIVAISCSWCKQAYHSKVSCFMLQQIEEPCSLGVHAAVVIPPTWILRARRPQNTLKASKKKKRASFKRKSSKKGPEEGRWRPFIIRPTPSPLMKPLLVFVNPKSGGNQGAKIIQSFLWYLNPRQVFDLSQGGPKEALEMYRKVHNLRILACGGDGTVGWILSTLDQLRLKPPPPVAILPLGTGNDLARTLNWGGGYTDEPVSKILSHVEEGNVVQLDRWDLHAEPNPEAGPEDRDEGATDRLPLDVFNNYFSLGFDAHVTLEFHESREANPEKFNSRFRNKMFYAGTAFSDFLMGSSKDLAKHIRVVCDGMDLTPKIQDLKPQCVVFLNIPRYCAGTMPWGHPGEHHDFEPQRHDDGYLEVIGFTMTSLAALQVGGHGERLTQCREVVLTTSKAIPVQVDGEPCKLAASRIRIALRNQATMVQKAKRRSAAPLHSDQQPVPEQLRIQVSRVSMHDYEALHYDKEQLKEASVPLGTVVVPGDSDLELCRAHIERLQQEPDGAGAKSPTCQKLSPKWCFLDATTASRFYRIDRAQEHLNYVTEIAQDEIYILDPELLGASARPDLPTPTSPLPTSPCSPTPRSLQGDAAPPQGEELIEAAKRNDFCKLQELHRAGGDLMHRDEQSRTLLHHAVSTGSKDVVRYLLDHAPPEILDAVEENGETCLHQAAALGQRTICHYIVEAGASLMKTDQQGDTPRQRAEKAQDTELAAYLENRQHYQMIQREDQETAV

[6] = system: Human venous whole blood (IFN-γ); experiment: Human whole blood IFN-γ assay; format: cell-based; settings: Homo sapiens, 24 h, human whole blood, anti-CD3 plus anti-CD28, 24 hours; read-out: INFg Whole Blood Normalized Agonist EC50
Description: Assay 10: Human Whole Blood IFN-γ Assay
Human venous whole blood (22.5 μL per well), obtained from healthy donors, was pre-treated with compounds for one hour at 37° C. in a humidified 95% air/5% CO2 incubator. The blood was stimulated with 2.5 μL anti-human CD3 and anti-CD28 mAb at a final concentration of 1 μg/mL each for 24 hours at 37° C. IFN-γ in the supernatants was measured using AlphLISA kit (Cat #AL217).

[7] = system: OT-1 CD8+ T cells with SIINFEKL-loaded MC38 tumor cells; experiment: Murine cytotoxic T lymphocyte assay (IFN-γ); format: cell-based, mouse; settings: Mus musculus, MC-38; murine cytotoxic T lymphocyte, IFN-γ; read-out: msCTL INFg IC50
From the text: Assay 6: Murine Cytotoxic T Lymphocyte Assay
An antigen-specific cytolytic T-cell (CTL) assay was developed to evaluate functionally the ability of DGKα and DGKζ inhibitors to enhance effector T cell mediated tumor cell killing activity. CD8+ T-cells isolated from the OT-1 transgenic mouse recognize antigen presenting cells, MC38, that present the ovalbumin derived peptide […]. Recognition of the cognate antigen initiates the cytolytic activity of the OT-1 antigen-specific CD8+ T cells.
Functional CTL cells were generated as follows: OT-1 splenocytes from 8-12 week old mice were isolated and expanded in the presence of the […] peptide at 1 μg/mL and mIL2 at 10 U/mL. After three days, fresh media with […] was added. On day 5 of the expansion, the CD8+ T cells were isolated and ready for use. Activated CTL cells may be stored frozen for 6 months. Separately, one million MC38 tumor cells were pulsed with 1 μg/mL of […]-OVA peptide for 3 hours at 37° C. The cells were washed (3×) with fresh media to remove excess peptide. Finally, CTL cells that were pretreated with DGK inhibitors for 1 hour in a 96-well U bottom plate were combined with the antigen loaded MC38 tumor cells at a 1:10 ratio. The cells were then spun at 700 rpm for 5 min and placed in an incubator overnight at 37° C. After 24 hours, the supernatant was collected for analysis of IFN-γ cytokine levels by AlphaLisa purchased from Perkin Elmer.

[8] = target: DGKα (Homo sapiens (Human), UniProt P23743); experiment: biochemical; format: biochemical; settings: liposome (LIPGLO) assay; read-out: DGKα LIPGLO IC50
Sequence of DGKα (P23743 whole entry, looked up): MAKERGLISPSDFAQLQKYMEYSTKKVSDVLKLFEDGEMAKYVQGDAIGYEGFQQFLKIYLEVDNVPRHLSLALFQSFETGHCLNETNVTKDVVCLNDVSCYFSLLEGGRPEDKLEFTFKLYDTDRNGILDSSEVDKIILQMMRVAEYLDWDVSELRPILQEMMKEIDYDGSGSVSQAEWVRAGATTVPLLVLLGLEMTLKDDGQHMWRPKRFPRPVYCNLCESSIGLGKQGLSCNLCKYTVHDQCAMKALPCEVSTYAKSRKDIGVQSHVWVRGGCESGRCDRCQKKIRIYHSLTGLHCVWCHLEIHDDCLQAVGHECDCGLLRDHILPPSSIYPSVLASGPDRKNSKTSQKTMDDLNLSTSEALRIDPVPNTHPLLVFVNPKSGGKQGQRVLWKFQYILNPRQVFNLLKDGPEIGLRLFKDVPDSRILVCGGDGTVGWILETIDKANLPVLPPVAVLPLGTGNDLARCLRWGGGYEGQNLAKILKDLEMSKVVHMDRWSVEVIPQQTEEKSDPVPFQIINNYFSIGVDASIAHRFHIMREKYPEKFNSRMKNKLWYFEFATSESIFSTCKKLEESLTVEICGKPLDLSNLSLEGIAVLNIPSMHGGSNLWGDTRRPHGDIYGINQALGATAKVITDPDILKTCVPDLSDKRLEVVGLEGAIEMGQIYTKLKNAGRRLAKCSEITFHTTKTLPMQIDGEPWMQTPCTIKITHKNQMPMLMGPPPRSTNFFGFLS

[9] = liposome (LIPGLO) assay, read-out: DGKζ LIPGLO IC50
[10] = human whole blood, CD8 positive population, anti-CD3 stimulation, read-out: DGK HWB (human whole blood pERK)
[11] = read-out: DGK HWB (human whole blood pERK), human whole blood, CD8 positive population, anti-CD3 stimulation

Sequence of Human DGKα(9-727) (P23743 whole entry, looked up): as above
Sequence of full length human DGKζ (Q13574 whole entry, looked up): as the sequence (Q13574 whole entry, looked up) above

Structure (SMILES)	IC50 [1, 9] [µM]	EC50 [4] [µM]	IC50 [5] [µM]	EC50 [6] [µM]	IC50 [7] [µM]	IC50 [8] [µM]	also measured
CC(C)O[C@@H]1CN(c2cc(=O)n(C)c3ccc(C#N)nc23)CC[C@H]1Oc1cccc(C(F)(F)F)c1 (relative stereo) [Example 395, trans-8-(3-Isopropoxy-4-(3-(trifluoromethyl)phenoxy)piperidin-1-yl)-5-methyl-6-oxo-5,6-dihydro-1,5-naphthyridine-2-carbonitrile]	0.069	–	–	–	–	–	IC50 [2]: 0.32 µM; EC50 [3, 10]: 0.91 µM
CC(C)O[C@@H]1CN(c2cc(=O)n(C)c3ccc(C#N)nc23)CC[C@H]1Oc1cccc(C(F)(F)F)c1 (relative stereo) [Example 396, trans-8-(3-Isopropoxy-4-(3-(trifluoromethyl)phenoxy)piperidin-1-yl)-5-methyl-6-oxo-5,6-dihydro-1,5-naphthyridine-2-carbonitrile]	3.6	–	–	–	–	–	IC50 [2]: 38 µM; EC50 [3, 10]: 14 µM
CCO[C@H]1CN(c2cc(=O)n(C)c3ccc(C#N)nc23)CC[C@@H]1Oc1ccc(OC(C)C)cn1 (relative stereo) [Example 398, trans-8-(4-((5-Isopropoxypyridin-2-yl)oxy)-3-ethoxypiperidin-1-yl)-5-methyl-6-oxo-5,6-dihydro-1,5-naphthyridine-2-carbonitrile]	1.2	–	–	–	–	–	EC50 [3, 10]: 2.8 µM
C[C@@H]1CN(c2cc(=O)n(C)c3ccc(C#N)nc23)[C@@H](C)CC1N(C)C(=O)c1ccc(F)cc1 (single isomer, unassigned) [Example 283A]	14	–	–	–	–	–	IC50 [2]: 26 µM
C[C@@H]1CN(c2cc(=O)n(C)c3ccc(C#N)nc23)[C@@H](C)CC1N(C)C(=O)c1ccc(F)cc1 (single isomer, unassigned) [Example 283B]	–	–	–	–	–	–	IC50 [1]: 42 µM; IC50 [2]: 42 µM
Cn1c(=O)c(C#N)c(N2CCC(Oc3ccccc3C(F)(F)F)CC2)c2nc(Cl)ccc21 [Example 11, 6-chloro-1-methyl-2-oxo-4-(4-(2-(trifluoromethyl)phenoxy)piperidin-1-yl)-1,2-dihydro-1,5-naphthyridine-3-carbonitrile]	–	10	150	10	0.83	12	–
Cn1c(=O)c(C#N)c(N2CCC(Oc3ccc(F)c(F)c3)CC2)c2nc(Cl)ccc21 [Example 12, 6-chloro-4-(4-(3,4-difluorophenoxy)piperidin-1-yl)-1-methyl-2-oxo-1,2-dihydro-1,5-naphthyridine-3-carbonitrile]	–	2.3	27	5	3.8	3.2	–
Cn1c(=O)c(C#N)c(N2CCC(Oc3cccc(OC(F)(F)F)c3)CC2)c2nc(Cl)ccc21 [Example 13, 6-chloro-1-methyl-2-oxo-4-(4-(3-(trifluoromethoxy)phenoxy)piperidin-1-yl)-1,2-dihydro-1,5-naphthyridine-3-carbonitrile]	–	1.2	240	5	1.5	2	–
COc1ccc(OC2CCN(c3c(C#N)c(=O)n(C)c4ccc(Cl)nc34)CC2)cc1 [Example 14, 6-chloro-4-(4-(4-methoxyphenoxy)piperidin-1-yl)-1-methyl-2-oxo-1,2-dihydro-1,5-naphthyridine-3-carbonitrile]	–	0.28	13	7	0.83	0.25	–
Cn1c(=O)c(C#N)c(N2CCC(Oc3ccc(OC(F)(F)F)c(F)c3)CC2)c2nc(Cl)ccc21 [Example 17, 6-chloro-4-(4-(3-fluoro-4-(trifluoromethoxy)phenoxy)piperidin-1-yl)-1-methyl-2-oxo-1,2-dihydro-1,5-naphthyridine-3-carbonitrile]	–	0.47	240	10	1.1	1.1	–
COc1ccc2c(n1)c(N1CCC(Oc3ccc(OC(F)(F)F)cc3)CC1)c(C#N)c(=O)n2C [Example 48, 6-methoxy-1-methyl-2-oxo-4-(4-(4-(trifluoromethoxy)phenoxy)piperidin-1-yl)-1,2-dihydro-1,5-naphthyridine-3-carbonitrile]	–	0.13	3.4	6.4	0.27	2.7	–
Cn1c(=O)c(C#N)c(N2CCC(Oc3ccc(OC(F)(F)F)cc3)CC2)c2nc(C#N)ccc21 [Example 50, 5-methyl-6-oxo-8-(4-(4-(trifluoromethoxy)phenoxy)piperidin-1-yl)-5,6-dihydro-1,5-naphthyridine-2,7-dicarbonitrile]	–	0.055	12	5	0.99	1.6	–
Cn1c(=O)c([N+](=O)[O-])c(N2CCC(Oc3ccc(OC(F)(F)F)cc3)CC2)c2nc(C#N)ccc21 [Example 51, 5-methyl-7-nitro-6-oxo-8-(4-(4-(trifluoromethoxy)phenoxy)piperidin-1-yl)-5,6-dihydro-1,5-naphthyridine-2-carbonitrile]	–	0.14	3	1.7	0.18	0.23	IC50 ([3]; human whole blood, CD8 positive population, read-out: DGK HWB pERK IC50): 2.5 µM
CCO[C@H]1CN(c2cc(=O)n(C)c3ccc(C#N)nc23)CC[C@@H]1Oc1ccc(OC(C)C)nn1 [Example 376, 8-((3S,4S)-3-ethoxy-4-((6-isopropoxypyridazin-3-yl)oxy)piperidin-1-yl)-5-methyl-6-oxo-5,6-dihydro-1,5-naphthyridine-2-carbonitrile]	14	–	–	–	–	–	EC50 ([3]; Homo sapiens, CD8 positive, read-out: DGK HWB (human whole blood pERK), human whole blood, CD8 positive population, anti-CD3 stimulation): 20 µM
CN(C)CCO[C@@H]1CN(c2cc(=O)n(C)c3ccc(C#N)nc23)CC[C@H]1Oc1cccc(C(F)(F)F)c1 [Example 385, 8-((3R,4R)-3-(2-(dimethylamino)ethoxy)-4-(3-(trifluoromethyl)phenoxy)piperidin-1-yl)-5-methyl-6-oxo-5,6-dihydro-1,5-naphthyridine-2-carbonitrile]	130	–	–	–	–	–	IC50 [2]: 100 µM
COCCO[C@@H]1CN(c2cc(=O)n(C)c3ccc(C#N)nc23)CC[C@H]1Oc1cccc(C(F)(F)F)c1 [Example 390, 8-((3R,4R)-3-(2-methoxyethoxy)-4-(3-(trifluoromethyl)phenoxy)piperidin-1-yl)-5-methyl-6-oxo-5,6-dihydro-1,5-naphthyridine-2-carbonitrile]	1.9	–	–	–	–	–	EC50 [3, 11]: 20 µM
Cn1c(=O)cc(N2CC[C@@H](Oc3cccc(C(F)(F)F)c3)[C@H](OCC(F)(F)F)C2)c2nc(C#N)ccc21 [Example 394, 5-methyl-6-oxo-8-((3R,4R)-3-(2,2,2-trifluoroethoxy)-4-(3-(trifluoromethyl)phenoxy)piperidin-1-yl)-5,6-dihydro-1,5-naphthyridine-2-carbonitrile]	51	–	–	–	–	–	EC50 [3, 11]: 6.2 µM
CCO[C@H]1CN(c2nc(=O)n(C)c3ccc(C#N)nc23)CC[C@@H]1Oc1ccc(C(F)(F)F)cc1 [Example 405, 4-((3S,4S)-3-ethoxy-4-(4-(trifluoromethyl)phenoxy)piperidin-1-yl)-1-methyl-2-oxo-1,2-dihydropyrido[3,2-d]pyrimidine-6-carbonitrile]	14	–	–	–	–	–	–
